The values that follow are results of earlier work, collected in US20100160306A1, “Acylated Piperidine Derivatives as Melanocortin-4 Receptor Agonists” (priority 2005, published 2010).

The conditions of this data set: injected intramuscularly or subcutaneously, males with psychogenic erectile dysfunction.

Consider “Ac-Nle-c[Asp-His-DPhe-Arg-Trp-Lys]-NH2 [MT-II]”, for which the response rate is reported as 75%.
